Results published in article PMC11853379, “Glioblastoma Cell Migration, Invasion and Vasculogenic Mimicry Downmodulated by Novel uPAcyclin Derivatives” (Cells, 2025).
Positions of bridges follow the written chain, without caps; N, C: chain ends. Residues, ends and D or L forms follow the SMILES beside them.

How the values were obtained:
[1] = biological target: T1, αV integrin on U251-MG cells (Homo sapiens, UniProt P06756); test: Receptor binding assay: displacement of FITC-uPAcyclin from U251-MG cells; details: competition with FITC-uPAcyclin
T1 construct: endogenous in cells; host or cells: U251-MG human glioblastoma cells (acid-treated, 4 °C)
T1 sequence (P06756 31-889 limits assumed): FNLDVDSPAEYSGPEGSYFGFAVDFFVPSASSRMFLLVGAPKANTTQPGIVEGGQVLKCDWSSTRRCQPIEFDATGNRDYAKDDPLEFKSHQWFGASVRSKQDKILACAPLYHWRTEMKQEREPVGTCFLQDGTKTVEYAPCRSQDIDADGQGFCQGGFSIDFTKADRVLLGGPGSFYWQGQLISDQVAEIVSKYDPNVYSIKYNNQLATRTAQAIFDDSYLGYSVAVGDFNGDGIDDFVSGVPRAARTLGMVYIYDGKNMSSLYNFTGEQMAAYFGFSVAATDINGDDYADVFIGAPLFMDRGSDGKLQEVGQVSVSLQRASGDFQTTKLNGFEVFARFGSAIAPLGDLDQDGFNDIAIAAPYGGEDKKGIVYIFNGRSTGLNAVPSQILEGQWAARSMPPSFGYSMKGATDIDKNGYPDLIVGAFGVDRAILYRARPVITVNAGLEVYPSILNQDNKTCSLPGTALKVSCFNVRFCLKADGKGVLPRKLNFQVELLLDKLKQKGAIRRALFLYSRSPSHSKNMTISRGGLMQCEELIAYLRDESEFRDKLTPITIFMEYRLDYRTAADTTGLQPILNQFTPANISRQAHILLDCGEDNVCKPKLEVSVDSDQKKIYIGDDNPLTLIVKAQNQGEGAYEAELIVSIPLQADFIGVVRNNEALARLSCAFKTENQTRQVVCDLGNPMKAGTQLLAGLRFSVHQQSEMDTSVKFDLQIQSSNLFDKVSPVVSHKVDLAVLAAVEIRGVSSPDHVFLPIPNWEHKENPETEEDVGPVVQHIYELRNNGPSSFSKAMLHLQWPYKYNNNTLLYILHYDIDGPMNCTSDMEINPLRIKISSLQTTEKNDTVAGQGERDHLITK
T1 sequence (P06756 891-1048 limits assumed): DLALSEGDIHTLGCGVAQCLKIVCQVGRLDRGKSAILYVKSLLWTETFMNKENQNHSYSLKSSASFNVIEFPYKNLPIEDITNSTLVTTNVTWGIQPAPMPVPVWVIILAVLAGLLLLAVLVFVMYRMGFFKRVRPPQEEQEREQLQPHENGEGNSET
Method: The U87-MG and U251-MG cell lines were harvested and acid-treated, as described. Briefly, 2 × 10^6 cells/sample were pre-incubated for 30 min at 4 °C with uPAcyclin and Ala peptides and subsequently exposed to 50 nM FITC-uPAcyclin for 2 h at 4 °C, as described. The experiments were performed three times, with duplicate samples, and analyzed as reported in the statistical analysis.
To rule out the possibility that the effects observed may be restricted to a single cell line, testing was extended to the U251-MG cell line, derived from a human glioblastoma with a mesenchymal-like phenotype with a lower proliferative capacity than U87-MG cells. This cell line was analyzed for the ability to specifically bind the FITC-uPAcyclin, in the presence of increasing concentrations of unlabeled [Ala^2,Ala^5]uPAcyclin, together with the parent uPAcyclin and the selected cyclopeptides [Ala^1]uPAcyclin, [Ala^4]uPAcyclin and [Ala^8]uPAcyclin (Figure 4A). In particular, [Ala^1]uPAcyclin and [Ala^8]uPAcyclin were selected for their contrasting affinity/activity observed on U87-MG glioblastoma cells, while [Ala^4]uPAcyclin was chosen to confirm the importance of Ser4 both in binding and in the anti-migratory activity of uPAcyclin.
Figure 4 Binding and biological effect of selected Ala peptides on U251-MG migration and invasion. […]

U87-MG cells [2] = test: F-actin cytoskeletal rearrangement, rhodamine-phalloidin staining; type: cell-based, human; details: 100 nM peptide pre-incubated 40 min 37 °C, then 5% FBS 3 h
Method: The U87-MG cells were analyzed for their cytoskeletal organization upon exposure to the indicated peptides. Briefly, 2 × 10^5 cells/sample were harvested via mild trypsinization, pre-treated for 40 min at 37 °C with 100 nM of selected peptides, and incubated with 5% FBS for 3 h at 37 °C. Samples diluted in a serum-free medium were included as negative controls. Then cells were fixed, permeabilized, and stained with 0.1 μg/mL rhodamine–phalloidin (Sigma-Merck, St. Louis, MO, USA) for 40 min at rt. To stain nuclei, the slides were incubated with 20 ng/mL DAPI (4′,6-Diamidino-2- phenylindole, Sigma-Merck, St. Louis, MO, USA) for 10 min at rt, mounted with Mowiol Mounting Medium (Sigma-Merck, St. Louis, MO, USA), and examined with the DMI6000 Leica Inverted Fluorescence Microscope ([…], Milan, Italy) at 40× magnification. At least 4 fields/samples were acquired, and the total fluorescence was measured with ImageJ.
Figure 5 Representative images of U87-MG cytoskeletal rearrangements. […] F-actin was detected via staining with rhodamine–phalloidin, as specified in the Methods section, using the Leica DMI 6000 Inverted Microscope at 40× magnification. […] In the histogram, the results are expressed as a percentage of total fluorescence intensity in the absence of FBS and peptide (no peptide); ** p-value < 0.005, * p ≤ 0.05.

U87-MG cells [3] = type: cell-based, human
Method: The migration and invasion assays were performed with Boyden chambers, according to De Vincenzo et al., using 11 × 10^4 U87-MG and U251-MG glioblastoma cells/sample pre-treated for 40 min at 37 °C with the indicated effectors and then allowed to migrate for 3 h or to invade for 5 h at 37 °C toward 5% FBS in DMEM/0.1% BSA. The migrated or invaded cells were reported as a percentage of basal random migration or invasion and analyzed as reported in the Statistical Analyses section. The migration and invasion experiments were conducted in triplicate.
Figure 1 Binding of Ala peptides to U87-MG cells and effect of uPAcyclin and Ala peptides on U87-MG cellular migration. (A) A total of 2 × 10^6 U87-MG cells were pre-incubated for 30 min at 4 °C with increasing concentrations of unlabeled uPAcyclin and Ala peptides and then exposed to 50 nM of FITC-uPAcyclin for 2 h at 4 °C. Cell surface-associated fluorescence, as percentage of the sample with […], is shown. Experiments were carried out in duplicate, and the data shown here are representative of three independent experiments. (B) 11 × 10^4 U87-MG cells/sample were pre-treated for 40 min at 37 °C with increasing concentrations of uPAcyclin or the indicated Ala peptides and then assayed in Boyden chambers for 5% FBS-dependent migration for 3 h at 37 °C. At the end of incubation, the filters were processed as described in the Methods section. For clarity here and in the following Figures, Ala-x indicates the peptide with substituted x-position. For both assays, the p-values are in the range of 0.005 ≤ p ≤ 0.001, apart from [Ala1]uPAcyclin in the migration assay with p ≤ 0.05.
Alterations of the amino acid sequence may affect the peptide structure and may, in turn, alter its function. To test for differences in the inhibitory activity of the Ala-substituted peptides, U87-MG glioblastoma cells were subjected to a directional migration assay in Boyden chambers towards FBS, in the presence or in the absence of the indicated concentrations of uPAcyclin or one of its Ala-scan derivatives (Figure 1B).

SMILES | binding to U251-MG cells (in words) [1] | reduction in total F-actin fluorescence (inhibition of cytoskeletal rearrangements) (U87-MG cells [2]) | IC50 of migration lower / inhibitory activity higher than parental uPAcyclin (U87-MG cells [3]; U87-MG migration) | inhibitory activity on cell migration, comparison (in words) (U87-MG cells [3]; U87-MG migration toward 5% FBS) | IC50 of migration lower than the single variants (U87-MG cells [3]; U87-MG migration, versus [Ala^2]uPAcyclin and [Ala^5]uPAcyclin) | migration reduced to (percentage of basal random migration) (U87-MG cells [3]; U87-MG, 5% FBS, concentration not given) | concentration at which dose-dependent inhibitory activity starts (U87-MG cells [3]; U87-MG migration toward 5% FBS) | effect on FBS-induced directional migration (in words) (U87-MG cells [3]; U87-MG, 1 µM peptide)
CC(=O)N[C@@H](CCCCN)C(=O)N[C@@H](C)C(=O)N[C@H]1CCC(=O)NCCCC[C@@H](C(N)=O)NC(=O)[C@H](CC(C)C)NC(=O)[C@H](CCC(=O)O)NC(=O)[C@H](CCC(=O)O)NC(=O)[C@@H]2CCCN2C(=O)[C@H](C)NC(=O)[C@H](CO)NC1=O [[Ala^2,Ala^5]uPAcyclin] (Ac-KAESAPEELK-NH2; lactam 3-10) | binds with the highest affinity | 50% | ~100 fold | most potent peptide of the series | about 10 fold | about 70% | – | –
CC(=O)N[C@@H](CCCCN)C(=O)N1CCC[C@H]1C(=O)N[C@H]1CCC(=O)NCCCC[C@@H](C(N)=O)NC(=O)[C@H](CC(C)C)NC(=O)[C@H](CCC(=O)O)NC(=O)[C@H](CCC(=O)O)NC(=O)[C@@H]2CCCN2C(=O)[C@@H]2CCCN2C(=O)[C@H](CO)NC1=O [uPAcyclin] (Ac-KPESPPEELK-NH2; lactam 3-10) | dose-dependent decrease in cell-associated fluorescence | 35% | – | – | – | – | 1 pM | abolishes FBS-induced directional migration
